Measurements: ChEMBL document CHEMBL5154678, “Lysine Stapling Screening Provides Stable and Low Toxic Cationic Antimicrobial Peptides Combating Multidrug-Resistant Bacteria In Vitro and In Vivo” (J Med Chem, 2022)
Converted amounts (≈) assume the structure as drawn. Starred links: 1 amine or outer side, 2 acyl side, 3 side chain; linkers in the order of their positions; H or OH if unused. Positions of bridges follow the written chain, without caps; N, C: chain ends. Non-standard residues stand in square brackets, D forms with d. Residues, ends and D or L forms follow the SMILES beside them. X1 = O=C([C@H](CCCCNCC=[*:3])N[*:1])[*:2]

Key:
Pseudomonas aeruginosa = experiment: Antibacterial activity against Pseudomonas aeruginosa BNCC 125486 assessed as inhibition of bacterial growth incubated for 16 hrs by broth microdilution method; format: functional
Staphylococcus aureus [1] = experiment: Antibacterial activity against methicillin-resistant Staphylococcus aureus assessed as inhibition of bacterial growth incubated for 16 hrs by broth microdilution method; format: functional
Erythrocyte = experiment: Hemolytic activity against human RBC assessed as concentration required to cause 10% hemolysis; format: toxicity, cell-based
Escherichia coli [2] = experiment: Antibacterial activity against cephalosporin-resistant Escherichia coli BNCC 133264 assessed as inhibition of bacterial growth incubated for 16 hrs by broth microdilution method; format: functional
HEK-293T = experiment: Cytotoxicity against human HEK293T cells assessed as cell survival rate at 8 to 128 Ug/ml incubated for 24 hrs by MTT assay relative to control; format: toxicity, cell-based; settings: dose 8-128 µg/ml
Escherichia coli [3] = experiment: Antibacterial activity against Escherichia coli BNCC 133264 assessed as inhibition of bacterial growth incubated for 16 hrs by broth microdilution method; format: functional
Listeria monocytogenes = experiment: Antibacterial activity against Listeria monocytogenes assessed as inhibition of bacterial growth incubated for 16 hrs by broth microdilution method; format: functional
Staphylococcus aureus [4] = experiment: Antibacterial activity against Staphylococcus aureus BNCC 186335 assessed as inhibition of bacterial growth incubated for 16 hrs by broth microdilution method; format: functional

| Structure (SMILES) | MIC (Pseudomonas aeruginosa) [µg/mL] | MIC (Staphylococcus aureus [1]) [µg/mL] | MHC (Erythrocyte) [µg/mL] | MIC (Escherichia coli [2]) [µg/mL] | Activity (HEK-293T) | MIC (Escherichia coli [3]) [µg/mL] | MIC (Listeria monocytogenes) [µg/mL] | MIC (Staphylococcus aureus [4]) [µg/mL] |
| --- | --- | --- | --- | --- | --- | --- | --- | --- |
| CC(C)C[C@H](NC(=O)[C@H](C)NC(=O)[C@H](CCCCN)NC(=O)[C@H](C)NC(=O)[C@H](C)NC(=O)CNC(=O)[C@@H]1CCCCNC/C=C/CNCCCC[C@H](NC(=O)[C@H](Cc2ccccc2)NC(=O)CN)C(=O)N[C@@H](CC(=O)O)C(=O)N[C@@H](CC(C)C)C(=O)N[C@@H](CC(C)C)C(=O)N1)C(=O)N[C@H](C(=O)N[C@@H](CCCCN)C(=O)N[C@H](C(=O)N[C@H](C(=O)N[C@@H](CC(C)C)C(=O)N[C@@H](Cc1ccccc1)C(N)=O)C(C)C)[C@@H](C)O)C(C)C (H-GF[X1]DLL[X1]GAAKALVKTVLF-NH2; staple (E) 3-7) | 128 (≈ 61.8 µM) | 16 (≈ 7.73 µM) | 32 | 32 (≈ 15.5 µM) | Toxic | 16 (≈ 7.73 µM) | 16 (≈ 7.73 µM) | 4 (≈ 1.93 µM) |
| CC[C@H](C)[C@H](NC(=O)[C@H](CCCCN)NC(=O)[C@H](CC(N)=O)NC(=O)[C@H](CC(C)C)NC(=O)[C@@H](NC(=O)[C@H](CCCCN)NC(=O)[C@@H]1CCCN1)[C@@H](C)CC)C(=O)N[C@@H](CC(C)C)C(=O)NCC(=O)N[C@@H](CCCCN)C(=O)N[C@H](C(=O)N[C@@H](CC(C)C)C(=O)N[C@@H](CCCNC(=N)N)C(=O)N[C@@H](CC(C)C)C(=O)N[C@@H](C)C(=O)N[C@@H](C)C(=O)N[C@@H](C)C(=O)N[C@@H](Cc1ccccc1)C(=O)N[C@@H](CCCCN)C(N)=O)[C@@H](C)CC (H-PKILNKILGKILRLAAAFK-NH2) | 4 (≈ 1.9 µM) | 4 (≈ 1.9 µM) | 16 | 4 (≈ 1.9 µM) | – | 4 (≈ 1.9 µM) | 4 (≈ 1.9 µM) | 2 (≈ 0.949 µM) |
| CC[C@H](C)[C@@H]1NC(=O)[C@@H](NC(=O)[C@H](CC(N)=O)NC(=O)[C@H](CC(C)C)NC(=O)[C@@H](NC(=O)[C@H](CCCCN)NC(=O)[C@@H]2CCCN2)[C@@H](C)CC)CCCCNC/C=C/CNCCCC[C@@H](C(=O)N[C@H](C(=O)N[C@@H](CC(C)C)C(=O)N[C@@H](CCCNC(=N)N)C(=O)N[C@@H](CC(C)C)C(=O)N[C@@H](C)C(=O)N[C@@H](C)C(=O)N[C@@H](C)C(=O)N[C@@H](Cc2ccccc2)C(=O)N[C@@H](CCCCN)C(N)=O)[C@@H](C)CC)NC(=O)CNC(=O)[C@H](CC(C)C)NC1=O (H-PKILN[X1]ILG[X1]ILRLAAAFK-NH2; staple (E) 6-10) | 16 (≈ 7.41 µM) | 4 (≈ 1.85 µM) | 16 | 8 (≈ 3.71 µM) | Non-Toxic | 4 (≈ 1.85 µM) | 2 (≈ 0.926 µM) | 2 (≈ 0.926 µM) |
| CC[C@H](C)[C@H](NC(=O)[C@@H]1CCCCNC/C=C/CNCCCC[C@H](NC(=O)[C@@H]2CCCN2)C(=O)N[C@@H]([C@@H](C)CC)C(=O)N[C@@H](CC(C)C)C(=O)N[C@@H](CC(N)=O)C(=O)N1)C(=O)N[C@@H](CC(C)C)C(=O)NCC(=O)N[C@@H](CCCCN)C(=O)N[C@H](C(=O)N[C@@H](CC(C)C)C(=O)N[C@@H](CCCNC(=N)N)C(=O)N[C@@H](CC(C)C)C(=O)N[C@@H](C)C(=O)N[C@@H](C)C(=O)N[C@@H](C)C(=O)N[C@@H](Cc1ccccc1)C(=O)N[C@@H](CCCCN)C(N)=O)[C@@H](C)CC (H-P[X1]ILN[X1]ILGKILRLAAAFK-NH2; staple (E) 2-6) | 128 (≈ 59.3 µM) | 4 (≈ 1.85 µM) | 16 | 16 (≈ 7.41 µM) | Toxic | 16 (≈ 7.41 µM) | 4 (≈ 1.85 µM) | 4 (≈ 1.85 µM) |
| CC(C)C[C@H](NC(=O)[C@H](C)NC(=O)[C@H](CCCCN)NC(=O)[C@H](C)NC(=O)[C@H](C)NC(=O)CNC(=O)[C@H](CCCCN)NC(=O)[C@H](CC(C)C)NC(=O)[C@H](CC(C)C)NC(=O)[C@H](CC(=O)O)NC(=O)[C@H](CCCCN)NC(=O)[C@H](Cc1ccccc1)NC(=O)CN)C(=O)N[C@H](C(=O)N[C@@H](CCCCN)C(=O)N[C@H](C(=O)N[C@H](C(=O)N[C@@H](CC(C)C)C(=O)N[C@@H](Cc1ccccc1)C(N)=O)C(C)C)[C@@H](C)O)C(C)C [Ascaphin-8] (H-GFKDLLKGAAKALVKTVLF-NH2) | 16 (≈ 7.93 µM) | 16 (≈ 7.93 µM) | 32 | 32 (≈ 15.9 µM) | Toxic | 4 (≈ 1.98 µM) | 2 (≈ 0.991 µM) | 2 (≈ 0.991 µM) |
| CCN1CCN(C(=O)N[C@@H](C(=O)N[C@@H]2C(=O)N3C(C(=O)[O-])=C(CSc4nnnn4C)CS[C@H]23)c2ccc(O)cc2)C(=O)C1=O.[Na+] [CEFOPERAZONE SODIUM] | 4 | > 128 | – | > 128 | – | 0.125 | 8 | 0.5 |
| CN[C@H](CC(C)C)C(=O)N[C@H]1C(=O)N[C@@H](CC(N)=O)C(=O)N[C@H]2C(=O)N[C@H]3C(=O)N[C@H](C(=O)N[C@H](C(=O)O)c4cc(O)cc(O)c4-c4cc3ccc4O)[C@H](O)c3ccc(c(Cl)c3)Oc3cc2cc(c3O[C@@H]2O[C@H](CO)[C@@H](O)[C@H](O)[C@H]2O[C@H]2C[C@](C)(N)[C@H](O)[C@H](C)O2)Oc2ccc(cc2Cl)[C@H]1O [VANCOMYCIN] | > 128 | – | – | > 128 | – | > 128 | – | – |
